{
  "source": "patent US9701650B2",
  "about": "“Derivatives of sobetirome” (OREGON HEALTH & SCIENCE UNIVERSITY, priority 2015, dated 2017)",
  "key": {"[1]": {"assay": "8-hour time course distribution study in mice (sobetirome in brain, liver, serum after ip administration)", "format": "in vivo", "details": "for AUC0-->t of sobetirome: ip 1.5 μmol/kg, 8 hour time course", "text": "(§1) The single time point pilot study was followed up for 11 and 15 vs. sobetirome with an 8-hour time course distribution study in mice. […] The sobetirome AUC, Cmax, and Tmax values in brain, liver and serum resulting from systemic administration of sobetirome, prodrug 11, and prodrug 15 are shown in Table 1 and the curves used to obtain these values are shown in FIGS. 2A, 2B and 2C.\nAnimal Studies: Experimental protocols were in compliance with the National Institutes of Health Guide for the Care and Use of Laboratory Animals and approved by the Oregon Health & Science University Institutional Animal Care & Use Committee. Wild type male C57Bl/6 mice, aged 8-10 weeks, were housed in a climate controlled room with a 12 hour light-dark cycle with ad libitum access to food and water. […] Euthanasia was performed on three mice per time points at the following times (0.15 h, 0.5 h, 1 h, 2 h, 4 h, and 8 h) and the tissues and blood were harvested. Tissues were immediately frozen and blood was kept on ice for a minimum of 30 minutes and then spun down at 7,500×G for 15 minutes. Serum (100 uL) was collected and was stored with tissues at −80° C. until samples were processed.\n(§2) Serum Processing: The serum samples were warmed to room temperature and 10 μL of 2.99 μM internal standard (D6-Sobetirome) was added to them. Acetonitrile (500 μL) was added and the sample was vortexed for 20 seconds. The sample was then centrifuged at 10,000×G for 15 minutes at 4° C. Next, 90% of the upper supernatant was transferred to a glass test tube and concentrated using a speedvac for 1.5 hours at 45° C. The dried sample was then dissolved in 400 μL of 50:50 ACN:H2O and vortexed for 20 seconds. The resulting mixture was transferred to an Eppendorf and centrifuged at 10,000×G for 15 minutes. The supernatant was filtered with 0.22 μM centrifugal filters and submitted for LC-MS/MS analysis. The standard curve was made with 100 μL of serum from an 8-10 week old mouse not injected with Sobetirome or prodrug. The processing was performed exactly the same except after filtering the sample was split amongst 6 vials. To 5 out of the 6 vials was added Sobetirome to make final concentrations in matrix of (0.1 pg/μL, 1 pg/μL, 10 pg/μL, 100 pg/μL, and 1000 pg/μL).\n(§3) Brain Processing: The brain samples were warmed to room temperature and transferred to a homogenizer tube with 5 GoldSpec ⅛ chrome steel balls (Applied Industrial Technologies). The resulting tube was weighed and then 1 mL of H2O was added, followed by 10 μL of 2.99 μM internal standard (D6-sobetirome). The tube was homogenized with a Bead Bug® for 30 seconds and then transferred to a Falcon tube containing 3 mL of ACN. ACN (1 mL) was used to wash homogenizer tube and the solution was transferred back to the Falcon tube. The sample was then processed using the same method for the serum processing except the sample was concentrated in a glass tube using a speedvac for 4 hours at 45° C.\n(§4) Liver Processing: The liver samples were warmed to room temperature and transferred to a homogenizer tube with 5 GoldSpec ⅛ chrome steel balls (Applied Industrial Technologies). The resulting tube was weighed and then 1 mL of H2O was added, followed by 10 μL of 2.99 μM internal standard (D6-Sobetirome). The tube was then homogenized with a Bead Bug for 30 seconds. A small sample (100 μL) was then taken from the homogenized mixture and processed. This was done because the liver levels found in some samples were too high for the LC-MS/MS instrument. The samples were then processed using the serum processing method."}, "[2]": {"assay": "single time point biodistribution study in mice (brain, liver, serum sobetirome 30 minutes after ip administration, LC-MS/MS)", "format": "in vivo", "details": "for brain sobetirome levels compared to equimolar systemic injection of sobetirome / liver sobetirome levels compared to direct sobetirome injection / serum sobetirome levels compared to direct sobetirome injection: sobetirome measured; for CNS distribution of sobetirome (in words): ip administration of prodrug, versus sobetirome", "description": "A biodistribution study in mice was performed on each prodrug to determine the brain, liver, and serum levels of sobetirome following a systemic (intraperitoneal) administration. The mice received an equimolar dose (1.5 μmol/kg) of prodrug and one cohort received the same dose of sobetirome as a control. Tissue and blood were collected 30 minutes post-injection and the concentration of sobetirome was determined using an LC-MS/MS. […] The brain/liver sobetirome ratio was increased compared to sobetirome injection by 5- and 10-fold for 11 and 15, respectively (FIG. 1C)\nAnimal Studies: Experimental protocols were in compliance with the National Institutes of Health Guide for the Care and Use of Laboratory Animals and approved by the Oregon Health & Science University Institutional Animal Care & Use Committee. Wild type male C57Bl/6 mice, aged 8-10 weeks, were housed in a climate controlled room with a 12 hour light-dark cycle with ad libitum access to food and water. Mice were injected once intraperitoneally (IP) with sobetirome and prodrugs at 3.05 μmol/kg. Euthanasia was performed on three mice per time points at the following times (0.15 h, 0.5 h, 1 h, 2 h, 4 h, and 8 h) and the tissues and blood were harvested. Tissues were immediately frozen and blood was kept on ice for a minimum of 30 minutes and then spun down at 7,500×G for 15 minutes. Serum (100 uL) was collected and was stored with tissues at −80° C. until samples were processed.\nas §2, §3, §4"}, "[3]": {"assay": "pharmacokinetic study of sobetirome in mice (t1/2)", "details": "mouse, in vivo", "text": "as §1"}, "[4]": {"details": "male, C57Bl/6, mouse, in vivo, ip"}, "[5]": {"details": "ip 1.5 μmol/kg, 30 minutes post-injection"}},
  "data": [
    {"smiles": "Cc1cc(OCC(=O)OC2CNC2)cc(C)c1Cc1ccc(O)c(C(C)C)c1", "note": "[Compound 15, azetidin-3-yl 2-(4-{[4-hydroxy-3-(propan-2-yl)phenyl]methyl}-3,5-dimethylphenoxy)acetate]", "values": [
      {"measurement": "Sobetirome Distribution AUCbrain/AUCliver", "setting": "[1]; [4]", "value": 0.20},
      {"measurement": "Sobetirome Distribution AUCbrain/AUCserum", "setting": "[1]; [4]", "value": 1.3},
      {"measurement": "brain/serum ratio of sobetirome based on AUC", "setting": "[1]; [4]", "value": 1.31},
      {"measurement": "sobetirome exposure in brain compared to direct sobetirome injection", "setting": "[1]; mouse, in vivo", "value": "increased sobetirome exposure"},
      {"measurement": "sobetirome exposure in liver compared to direct sobetirome injection", "setting": "[1]; mouse, in vivo", "value": "decreased sobetirome exposure"},
      {"measurement": "sobetirome exposure in serum compared to direct sobetirome injection", "setting": "[1]; mouse, in vivo", "value": "decreased sobetirome exposure"},
      {"measurement": "CNS distribution properties compared to 11", "setting": "[1]; mouse, in vivo, ip", "value": "superior CNS distribution properties"},
      {"measurement": "increase in sobetirome AUC(brain)/AUC(liver) relative to sobetirome", "setting": "[1]; mouse, in vivo, ip", "value": "five-fold increase"},
      {"measurement": "time to reach Cmax", "setting": "[1]; mouse, in vivo, ip", "value": 1, "unit": "h"},
      {"measurement": "brain sobetirome levels compared to equimolar systemic injection of sobetirome", "setting": "[2]; [5]", "value": "significant brain sobetirome level increases"},
      {"measurement": "liver sobetirome levels compared to direct sobetirome injection", "setting": "[2]; [5]", "value": "significantly lower"},
      {"measurement": "serum sobetirome levels compared to direct sobetirome injection", "setting": "[2]; [5]", "value": "significantly lower"},
      {"measurement": "CNS distribution of sobetirome (in words)", "setting": "[2]", "value": "improved CNS distribution"}
    ]},
    {"smiles": "Cc1cc(OCC(=O)OCC[N+](C)(C)C)cc(C)c1Cc1ccc(O)c(C(C)C)c1.[Br-]", "note": "[Compound 8, 2-(trimethylamino)ethyl 2-(4-{[4-hydroxy-3-(propan-2-yl)phenyl]methyl}-3,5-dimethylphenoxy)acetate hydrobromide]", "values": [
      {"measurement": "CNS distribution of sobetirome (in words)", "setting": "[2]", "value": "did not improve CNS distribution of sobetirome"}
    ]},
    {"smiles": "Cc1cc(OCC(=O)OCCN)cc(C)c1Cc1ccc(O)c(C(C)C)c1.Cl", "note": "[Compound 11, GC1-ethanolamine]", "values": [
      {"measurement": "sobetirome exposure in brain compared to direct sobetirome injection", "setting": "[1]; mice, full time course", "value": "increased sobetirome exposure"},
      {"measurement": "sobetirome exposure in liver compared to direct sobetirome injection", "setting": "[1]; mice, full time course", "value": "decreased sobetirome exposure"},
      {"measurement": "sobetirome exposure in serum compared to direct sobetirome injection", "setting": "[1]; mice, full time course", "value": "decreased sobetirome exposure"},
      {"measurement": "brain sobetirome levels compared to equimolar systemic injection of sobetirome", "setting": "[2]; [5]", "value": "significant brain sobetirome level increases"},
      {"measurement": "liver sobetirome levels compared to direct sobetirome injection", "setting": "[2]; [5]", "value": "significantly lower"},
      {"measurement": "serum sobetirome levels compared to direct sobetirome injection", "setting": "[2]; [5]", "value": "significantly lower"},
      {"measurement": "CNS distribution of sobetirome (in words)", "setting": "[2]", "value": "improved CNS distribution"}
    ]},
    {"smiles": "Cc1cc(OCC(=O)O)cc(C)c1Cc1ccc(O)c(C(C)C)c1", "note": "[Sobetirome]", "values": [
      {"measurement": "AUC0-->t of sobetirome", "setting": "[1]; mouse brain", "value": 10.8, "unit": "ng·h/g"},
      {"measurement": "AUC0-->t of sobetirome", "setting": "[1]; mouse liver", "value": 293, "unit": "ng·h/g"},
      {"measurement": "AUC0-->t of sobetirome", "setting": "[1]; mouse serum", "value": 68.2, "unit": "ng·h/g"},
      {"measurement": "half-life", "setting": "[3]", "value": 1.5, "unit": "h"}
    ]},
    {"smiles": "Cc1cc(OCC(=O)OCCN2CCOCC2)cc(C)c1Cc1ccc(O)c(C(C)C)c1", "note": "[Compound 9, 2-(morpholin-4-yl)ethyl 2-(4-{[4-hydroxy-3-(propan-2-yl)phenyl]methyl}-3,5-dimethylphenoxy)acetate]", "values": [
      {"measurement": "brain/serum ratio of sobetirome (in words)", "setting": "[2]; [5]", "value": "did not significantly increase"},
      {"measurement": "brain sobetirome levels compared to equimolar systemic injection of sobetirome", "setting": "[2]; [5]", "value": "did not significantly increase"}
    ]}
  ]
}
